# Measured values: paper PMC5460289, “Identification of New Shikonin Derivatives as Antitumor Agents Targeting STAT3 SH2 Domain” (Scientific Reports, 2017)
# Legend:
# Type in all cases: cell-based, human
# BT-474 = test: MTT anti-proliferation assay; settings: Homo sapiens, BT-474, 24 h treatment
# Experimental: (§1) Initial experiments were performed for evaluation of growth inhibition by the new compounds against six human breast cancer cell lines, including MCF-7 (ER+/PR+, HER-2-), BT474 (ER+/PR+, HER-2+), SKBR-3 (ER-/PR-/HER-2+), MDA-MB-436 (ER-/PR-/HER-2-), MDA-MB-231 (ER-/PR-/HER-2-), MDA-MB-468 (ER-/PR-/HER-2-) and non-tumorigenic MCF-10A cells. After 24 h treatment by the obtained compounds, the inhibition was assessed and the IC50 was summarized. […] Subsequently, the inhibition of STAT3 activation by PMM-172 and Stattic was evaluated using a dual-luciferase assay.
# (§2) The anti-proliferative activities of the prepared compounds against MCF-7 (ER+/PR+, HER-2-), BT474 (ER+/PR+, HER-2+), SKBR-3 (ER-/PR-/HER-2+), MDA-MB-436 (ER-/PR-/HER-2-), MDA-MB-231 (ER-/PR-/HER-2-), MDA-MB-468 (ER-/PR-/HER-2-) and non-tumorigenic MCF-10A cell lines were evaluated using a standard (MTT)-based colorimetric assay with some modification. Cell lines were grown to log phase in DMEM supplemented with 10% fetal bovine serum. Cell suspensions were prepared and 100 μL/well dispensed into 96-well plates giving 10^4 cells/well. The subsequent incubation was permitted at 37 °C, 5% CO2 atmosphere for 24 h to allow the cells to reattach. Subsequently, cells were treated with the target compounds at increasing concentrations in the presence of 10% FBS for 24 h. Then, cell viability was assessed by the conventional 3-(4, 5-dimethylthiazol-2-yl)-2, 5-diphenyltetrazolium bromide (MTT) reduction assay and carried out strictly according to the manufacturer instructions. The absorbance (OD570) was read on an ELISA reader (Tecan, Austria). In all experiments, three replicate wells were used for each drug concentration. Each assay was carried out for at least three times.
# MCF-7 = test: MTT anti-proliferation assay; settings: Homo sapiens, MCF7, 24 h treatment
# Experimental: as §1, §2
# MDA-MB-231 = test: MTT anti-proliferation assay; settings: Homo sapiens, MDA-MB-231, 24 h treatment
# Experimental: as §1, §2
# MDA-MB-436 = test: MTT anti-proliferation assay; settings: Homo sapiens, MDA-MB-436, 24 h treatment
# Experimental: as §1, §2
# MDA-MB-468 = test: MTT anti-proliferation assay; settings: Homo sapiens, MDA-MB-468, 24 h treatment
# Experimental: as §1, §2
# SKBR-3 = test: MTT anti-proliferation assay; settings: Homo sapiens, SK-BR-3, 24 h treatment
# Experimental: as §1, §2
# STAT1 = test: Western blot of STAT1 phosphorylation and expression; settings: MDA-MB-231
# Experimental: Figure 6 (A) PMM-172 suppressed constitutive pSTAT3 (Tyr705) in a dose-dependent manner. (B) PMM-172 suppressed constitutive pSTAT3 (Tyr705) in a time-dependent manner. (C) MDA-MB-231 cells were treated with IL-6 (20 ng/mL) or vehicle for 30 min, with or without pretreatment with PMM-172 (2 μM) for 24 h. PMM-172 inhibited IL-6 induced phosphorylation of STAT3. (D) Stattic suppressed constitutive pSTAT3 (Tyr705) in a dose-dependent manner. (E) Stattic suppressed constitutive pSTAT3 (Tyr705) in a time-dependent manner. (F) Tyrosine phosphorylation of two STAT family proteins STAT1 and STAT5 were detected with specific antibodies. […] Data were shown as mean ± SD of three independent experiments. *P < 0.05, **P < 0.01. Cropped blots/gels were used in the figure and the gels had been run under the same experimental conditions; the full-length blots/gels are presented in Supplementary Figure S2.
# Subsequently, we evaluated the phosphorylation level of other STAT family proteins including STAT1 and STAT5.
# (§3) Cells were rinsed twice with cold PBS and then lysed with RIPA buffer containing a protease inhibitor mixture at 1:100 dilution on ice for 30 min. Insoluble components of cell lysates were removed by centrifugation (4 °C, 12000 rmp, 10 min), and protein concentrations were measured using a Pierce BCA protein assay kit. […]
# pSTAT3 in MCF-10A cells = test: Western blot of pSTAT3 in non-tumorigenic cells; settings: 24 h, increasing doses
# Experimental: Figure 7 MDA-MB-231 cells were treated with indicated concentrations of PMM-172 or Stattic for 24 h, the expression levels of STAT3 in cytoplasmic and nuclear extracts were examined and relative expression levels were analyzed by Image J software. β-actin and Lamin B1 served as markers of cytoplasmic and nuclear extractions, respectively. […] (C) MCF-10A cells were treated with the indicated concentrations of PMM-172 for 24 h. PMM-172 had no effect on the level of the pSTAT3 level in MCF-10A cells. […] Data were shown as mean ± SD from three independent experiments, **P < 0.01. Cropped blots/gels were used in the figure and the gels had been run under the same experimental conditions; the full-length blots/gels are presented in Supplementary Figure S3.
# In the following work, we examined whether PMM-172 could affect the activity of STAT3 and viability in non-cancer cells. The non-tumorigenic MCF-10A epithelial cells were employed to be treated with increasing doses of PMM-172 to conduct this assay.
# as §3
compound,measurement,setting,value
"COc1cc(OC)cc(-c2nnc(SCC(=O)O[C@H](CC=C(C)C)C3=CC(=O)c4c(O)ccc(O)c4C3=O)o2)c1 [PMM-172, (R)-1-(5,8-dihydroxy-1,4-dioxo-1,4-dihydronaphthalen-2-yl)-4-methylpent-3-en-1-yl 2-((5-(3,5-dimethoxyphenyl)-1,3,4-oxadiazol-2-yl)thio)acetate]",IC50,BT-474,5.26 ± 0.66 µM
same,IC50,MCF-7,4.87 ± 0.55 µM
same,IC50,MDA-MB-231,1.98 ± 0.49 µM
same,IC50,MDA-MB-436,3.07 ± 0.47 µM
same,IC50,MDA-MB-468,3.24 ± 0.27 µM
same,IC50,SKBR-3,3.14 ± 0.46 µM
same,phosphorylation and expression of STAT1,STAT1,inhibited neither the phosphorylation nor expression
same,expression levels of total STAT3 in MCF-10A cells,pSTAT3 in MCF-10A cells,kept unchanged
same,pSTAT3 level in MCF-10A cells,pSTAT3 in MCF-10A cells,had no effect
